PubChem BioAssay AID2060886 (Molecular Pharmacology Branch, DTP, NCI, 2025)
Each block holds one compound with its values, some of them ahead of it.

System: 653999-131-R-J2-PDC complex spheroids, growth inhibition
Assay: Anticancer human tumor 653999-131-R-J2-PDC patient-derived lung adenocarcinoma cell line growth inhibition [RAS]
Conditions: for IC50: curve of first compound; for viability, T/C: stronger effect = lower value
How it was run: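 Multi-cell-type spheroids: tumor cells plus HUVEC endothelial cells and mesenchymal stem cells. RAS-pathway inhibitors were combined with targeted agents, each dosed in half-log steps down from clinical Cmax, or from 10 microM when Cmax was unknown.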

[1] = second compound 0.00316 µM, first compound 0.0316 µM
[2] = second compound 0.00316 µM, first compound 0.1 µM
[3] = second compound 0.00316 µM, first compound 0.316 µM
[4] = second compound 0.00316 µM, first compound 1 µM
[5] = second compound 0.00316 µM, first compound 3.16 µM
[6] = second compound 0.00316 µM, first compound 10 µM
[7] = second compound 0.01 µM, first compound 0.0316 µM
[8] = second compound 0.01 µM, first compound 0.1 µM
[9] = second compound 0.01 µM, first compound 0.316 µM
[10] = second compound 0.01 µM, first compound 1 µM
[11] = second compound 0.01 µM, first compound 3.16 µM
[12] = second compound 0.01 µM, first compound 10 µM
[13] = second compound 0.0316 µM, first compound 0.0316 µM
[14] = second compound 0.0316 µM, first compound 0.1 µM
[15] = second compound 0.0316 µM, first compound 0.316 µM
[16] = second compound 0.0316 µM, first compound 1 µM
[17] = second compound 0.0316 µM, first compound 3.16 µM
[18] = second compound 0.0316 µM, first compound 10 µM
[19] = second compound 0.1 µM, first compound 0.0316 µM
[20] = second compound 0.1 µM, first compound 0.1 µM
[21] = second compound 0.1 µM, first compound 0.316 µM
[22] = second compound 0.1 µM, first compound 1 µM
[23] = second compound 0.1 µM, first compound 3.16 µM
[24] = second compound 0.1 µM, first compound 10 µM
[25] = second compound 0.316 µM, first compound 0.0316 µM
[26] = second compound 0.316 µM, first compound 0.1 µM
[27] = second compound 0.316 µM, first compound 0.316 µM
[28] = second compound 0.316 µM, first compound 1 µM
[29] = second compound 0.316 µM, first compound 3.16 µM
[30] = second compound 0.316 µM, first compound 10 µM
[31] = second compound 1 µM, first compound 0.0316 µM
[32] = second compound 1 µM, first compound 0.1 µM
[33] = second compound 1 µM, first compound 0.316 µM
[34] = second compound 1 µM, first compound 1 µM
[35] = second compound 1 µM, first compound 3.16 µM
[36] = second compound 1 µM, first compound 10 µM
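Also: spheroids exposed to the agents for seven days before the readout.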

IC50 (second compound 0.00316 µM): > 10 µM
IC50 (second compound 0.01 µM): > 10 µM
IC50 (second compound 0.0316 µM): > 10 µM
IC50 (second compound 0.1 µM): > 10 µM
IC50 (second compound 0.316 µM): > 10 µM
IC50 (second compound 1 µM): > 10 µM
Structure (SMILES): Cc1nc(N2CCC3(CC2)COC(C)C3N)c(CO)nc1Sc1ccnc(N)c1Cl (stereo not drawn) + C=CC(=O)N1CCN(c2nc(OCC3CCCN3C)nc3c(F)c(-c4nc(N)cc(C)c4C(F)(F)F)c(Cl)cc23)C(C)C1
viability, T/C [1]: 81.4%
viability, T/C [2]: 76.7%
viability, T/C [3]: 77.9%
viability, T/C [4]: 74.6%
viability, T/C [5]: 83.3%
viability, T/C [6]: 78.2%
viability, T/C [7]: 90.5%
viability, T/C [8]: 86.5%
viability, T/C [9]: 78.3%
viability, T/C [10]: 80.6%
viability, T/C [11]: 86.9%
viability, T/C [12]: 63.9%
viability, T/C [13]: 87.2%
viability, T/C [14]: 82.6%
viability, T/C [15]: 93.1%
viability, T/C [16]: 84.7%
viability, T/C [17]: 78.1%
viability, T/C [18]: 63.9%
viability, T/C [19]: 103%
viability, T/C [20]: 77.6%
viability, T/C [21]: 90.2%
viability, T/C [22]: 73.5%
viability, T/C [23]: 77%
viability, T/C [24]: 70%
viability, T/C [25]: 92%
viability, T/C [26]: 82%
viability, T/C [27]: 82.9%
viability, T/C [28]: 78.4%
viability, T/C [29]: 80.7%
viability, T/C [30]: 73.9%
viability, T/C [31]: 105%
viability, T/C [32]: 66.7%
viability, T/C [33]: 74.8%
viability, T/C [34]: 78.3%
viability, T/C [35]: 67.3%
viability, T/C [36]: 82.1%

IC50 (second compound 0.0316 µM): 0.558 µM
IC50 (second compound 0.1 µM): 0.273 µM
IC50 (second compound 0.316 µM): 0.117 µM
IC50 (second compound 1 µM): < 0.0316 µM
IC50 (second compound 3.16 µM): < 0.0316 µM
IC50 (second compound 10 µM): < 0.0316 µM
Structure (SMILES): CC(Nc1ccc2c(c1)OCCn1cc(N3C(=O)OCC3C(F)F)nc1-2)C(N)=O (stereo not drawn) + C#Cc1c(F)ccc2cc(O)cc(-c3ncc4c(N5CC6CCC(C5)N6)nc(OCC56CCCN5CC(F)C6)nc4c3F)c12
viability, T/C [13]: 86.3%
viability, T/C [14]: 70.3%
viability, T/C [15]: 53.8%
viability, T/C [16]: 44.4%
viability, T/C [17]: 35.1%
viability, T/C [18]: 22.3%
viability, T/C [19]: 77.2%
viability, T/C [20]: 66.9%
viability, T/C [21]: 47%
viability, T/C [22]: 32.3%
viability, T/C [23]: 26.1%
viability, T/C [24]: 22.6%
viability, T/C [25]: 63.6%
viability, T/C [26]: 51.2%
viability, T/C [27]: 39.5%
viability, T/C [28]: 25.5%
viability, T/C [29]: 18.9%
viability, T/C [30]: 13.5%
viability, T/C [31]: 39.9%
viability, T/C [32]: 35.1%
viability, T/C [33]: 28.1%
viability, T/C [34]: 23%
viability, T/C [35]: 19%
viability, T/C [36]: 11%
viability, T/C (second compound 3.16 µM, first compound 0.0316 µM): 30.1%
viability, T/C (second compound 3.16 µM, first compound 0.1 µM): 28.4%
viability, T/C (second compound 3.16 µM, first compound 0.316 µM): 22.9%
viability, T/C (second compound 3.16 µM, first compound 1 µM): 11.8%
viability, T/C (second compound 3.16 µM, first compound 3.16 µM): 13.9%
viability, T/C (second compound 3.16 µM, first compound 10 µM): 7.23%
viability, T/C (second compound 10 µM, first compound 0.0316 µM): 17.1%
viability, T/C (second compound 10 µM, first compound 0.1 µM): 14.3%
viability, T/C (second compound 10 µM, first compound 0.316 µM): 10.6%
viability, T/C (second compound 10 µM, first compound 1 µM): 8.07%
viability, T/C (second compound 10 µM, first compound 3.16 µM): 5.81%
viability, T/C (second compound 10 µM, first compound 10 µM): 4.16%

IC50 (second compound 0.00316 µM): 2.05 µM
IC50 (second compound 0.01 µM): 1.97 µM
IC50 (second compound 0.0316 µM): 2.03 µM
IC50 (second compound 0.1 µM): 2.12 µM
IC50 (second compound 0.316 µM): 1.91 µM
IC50 (second compound 1 µM): 2.1 µM
Structure (SMILES): CCC(CC)c1cc(NC2CCC(N)C2)n2nccc2n1 (stereo not drawn) + C=CC(=O)N1CCN(c2nc(OCC3CCCN3C)nc3c(F)c(-c4nc(N)cc(C)c4C(F)(F)F)c(Cl)cc23)C(C)C1
viability, T/C [1]: 107%
viability, T/C [2]: 109%
viability, T/C [3]: 95.5%
viability, T/C [4]: 101%
viability, T/C [5]: 16.5%
viability, T/C [6]: 21.7%
viability, T/C [7]: 91.2%
viability, T/C [8]: 92.2%
viability, T/C [9]: 104%
viability, T/C [10]: 99%
viability, T/C [11]: 16.9%
viability, T/C [12]: 18.1%
viability, T/C [13]: 93.3%
viability, T/C [14]: 117%
viability, T/C [15]: 87.4%
viability, T/C [16]: 94.3%
viability, T/C [17]: 18.2%
viability, T/C [18]: 26%
viability, T/C [19]: 99.9%
viability, T/C [20]: 95.4%
viability, T/C [21]: 112%
viability, T/C [22]: 113%
viability, T/C [23]: 16.1%
viability, T/C [24]: 25.5%
viability, T/C [25]: 123%
viability, T/C [26]: 100%
viability, T/C [27]: 93.7%
viability, T/C [28]: 89.4%
viability, T/C [29]: 14.8%
viability, T/C [30]: 23.8%
viability, T/C [31]: 114%
viability, T/C [32]: 97.2%
viability, T/C [33]: 111%
viability, T/C [34]: 116%
viability, T/C [35]: 13.8%
viability, T/C [36]: 20.9%

IC50 (second compound 0.000949 µM): > 1 µM
IC50 (second compound 0.003 µM): > 1 µM
IC50 (second compound 0.00949 µM): 0.0324 µM
IC50 (second compound 0.03 µM): < 0.00316 µM
IC50 (second compound 0.0949 µM): < 0.00316 µM
IC50 (second compound 0.3 µM): < 0.00316 µM
Structure (SMILES): C=CC(=O)N1CCN(c2nc(OCC3CCCN3C)nc3c(F)c(-c4nc(N)cc(C)c4C(F)(F)F)c(Cl)cc23)C(C)C1 (stereo not drawn) + CCn1c(-c2cc(N3CCN(C)CC3)cnc2C(C)OC)c2c3cc(ccc31)-c1csc(n1)CC(NC(=O)C1CC1C)C(=O)N1CCCC(N1)C(=O)OCC(C)(C)C2
viability, T/C (second compound 0.000949 µM, first compound 0.00316 µM): 83.2%
viability, T/C (second compound 0.000949 µM, first compound 0.01 µM): 82.7%
viability, T/C (second compound 0.000949 µM, first compound 0.0316 µM): 82.1%
viability, T/C (second compound 0.000949 µM, first compound 0.1 µM): 78.4%
viability, T/C (second compound 0.000949 µM, first compound 0.316 µM): 92%
viability, T/C (second compound 0.000949 µM, first compound 1 µM): 86.1%
viability, T/C (second compound 0.003 µM, first compound 0.00316 µM): 57.9%
viability, T/C (second compound 0.003 µM, first compound 0.01 µM): 63%
viability, T/C (second compound 0.003 µM, first compound 0.0316 µM): 59.1%
viability, T/C (second compound 0.003 µM, first compound 0.1 µM): 65.7%
viability, T/C (second compound 0.003 µM, first compound 0.316 µM): 63.3%
viability, T/C (second compound 0.003 µM, first compound 1 µM): 75.6%
viability, T/C (second compound 0.00949 µM, first compound 0.00316 µM): 50%
viability, T/C (second compound 0.00949 µM, first compound 0.01 µM): 57.5%
viability, T/C (second compound 0.00949 µM, first compound 0.0316 µM): 50.2%
viability, T/C (second compound 0.00949 µM, first compound 0.1 µM): 40.4%
viability, T/C (second compound 0.00949 µM, first compound 0.316 µM): 40.2%
viability, T/C (second compound 0.00949 µM, first compound 1 µM): 42.6%
viability, T/C (second compound 0.03 µM, first compound 0.00316 µM): 46.5%
viability, T/C (second compound 0.03 µM, first compound 0.01 µM): 35.3%
viability, T/C (second compound 0.03 µM, first compound 0.0316 µM): 43.2%
viability, T/C (second compound 0.03 µM, first compound 0.1 µM): 32%
viability, T/C (second compound 0.03 µM, first compound 0.316 µM): 37.3%
viability, T/C (second compound 0.03 µM, first compound 1 µM): 34.9%
viability, T/C (second compound 0.0949 µM, first compound 0.00316 µM): 28.9%
viability, T/C (second compound 0.0949 µM, first compound 0.01 µM): 29.4%
viability, T/C (second compound 0.0949 µM, first compound 0.0316 µM): 26.7%
viability, T/C (second compound 0.0949 µM, first compound 0.1 µM): 38.9%
viability, T/C (second compound 0.0949 µM, first compound 0.316 µM): 38.6%
viability, T/C (second compound 0.0949 µM, first compound 1 µM): 35.9%
viability, T/C (second compound 0.3 µM, first compound 0.00316 µM): 29.5%
viability, T/C (second compound 0.3 µM, first compound 0.01 µM): 27.5%
viability, T/C (second compound 0.3 µM, first compound 0.0316 µM): 21.8%
viability, T/C (second compound 0.3 µM, first compound 0.1 µM): 32.6%
viability, T/C (second compound 0.3 µM, first compound 0.316 µM): 28.3%
viability, T/C (second compound 0.3 µM, first compound 1 µM): 26.1%
